Data: patent US20240245694A1, “Tricyclic Compounds and their Uses” (Novartis AG, priority 2022, published 2024)

Tests used:
[1] = target: WRN helicase (core helicase motif aa N517-P1238) (Homo sapiens (Human), UniProt Q14191); experiment: WRN ATPase assay (ADP-Glo), DNA dependent ATP hydrolysis; format: biochemical; conditions: 3 hours pre-incubation, 300 micromolar ATP, FLAP26 ssDNA; geometric means of at least 2 determinations
How it was run: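 Uses the WRN core helicase (aa N517-P1238) with single-strand 45-mer FLAP26 DNA in Tris pH 7.5, MgCl2, NaCl, BSA and pluronic buffer. Compound was pre-incubated 3 h with enzyme and ATP; reaction then run with 10 nM WRN, 0.2 nM FLAP26 and 300 µM ATP for 30 min at room temperature. ADP quantified by ADP-Glo luminescence; IC50 from duplicate 4-parameter fits, geometric mean of ≥2 runs.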

SW48 cells = experiment: Proliferation assay SW48 (CellTiterGlo, 96 hours); format: cell-based; conditions: Homo sapiens
How it was run: (§1)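 Cells in RPMI-1640/10% FCS were seeded overnight (SW48 2'000, DLD1-WRN-KO 1'500 cells/well), then exposed to eight 3-fold compound dilutions at 0.1% DMSO. ATP luminescence relative to a day-0 plate gives % growth (0% stasis, −100% complete kill). GI50 is the geometric mean of ≥2 independent replicates.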

DLD1-WRN-KO cells = experiment: Proliferation assay DLD1-WRN-KO (CellTiterGlo, 96 hours), off-target effects; format: cell-based; conditions: Homo sapiens
How it was run: as §1

Sequence of WRN helicase (core helicase motif aa N517-P1238) (Q14191 517-1238): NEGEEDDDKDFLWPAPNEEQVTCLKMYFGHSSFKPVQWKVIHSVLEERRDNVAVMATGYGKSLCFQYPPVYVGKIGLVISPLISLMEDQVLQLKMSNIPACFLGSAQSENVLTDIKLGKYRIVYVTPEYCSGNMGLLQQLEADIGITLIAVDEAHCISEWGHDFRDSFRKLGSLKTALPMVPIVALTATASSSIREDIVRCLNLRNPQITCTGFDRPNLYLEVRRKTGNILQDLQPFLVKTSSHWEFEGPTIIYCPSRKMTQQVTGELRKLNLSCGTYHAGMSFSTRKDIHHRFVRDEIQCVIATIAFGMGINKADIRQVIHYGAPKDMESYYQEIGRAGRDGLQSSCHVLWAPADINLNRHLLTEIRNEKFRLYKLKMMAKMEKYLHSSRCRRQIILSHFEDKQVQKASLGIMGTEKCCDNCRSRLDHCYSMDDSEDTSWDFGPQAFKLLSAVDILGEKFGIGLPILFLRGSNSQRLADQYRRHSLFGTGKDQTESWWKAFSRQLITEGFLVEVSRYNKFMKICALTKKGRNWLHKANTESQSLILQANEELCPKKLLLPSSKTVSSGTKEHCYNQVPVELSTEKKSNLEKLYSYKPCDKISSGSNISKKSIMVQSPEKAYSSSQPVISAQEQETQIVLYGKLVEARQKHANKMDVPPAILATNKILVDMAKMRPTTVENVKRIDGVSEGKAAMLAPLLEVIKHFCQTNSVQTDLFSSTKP

For `Cc1cc(F)c(O)c(C(=O)N2CCN(c3c4n(c5nc(N6CCOCC6)nn5c3=O)[C@@H](C(=O)Nc3ccc(C(F)(F)F)cc3Cl)C[C@H]4C)CC2)n1` [Example 3A, (7R,9R)—N-(2-chloro-4-(trifluoromethyl)phenyl)-6-(4-(4-fluoro-3-hydroxy-6-methylpicolinoyl)piperazin-1-yl)-7-methyl-2-morpholino-5-oxo-5,7,8,9-tetrahydropyrrolo[1,2-c][1,2,4]triazolo[1,5-a]pyrimidine-9-carboxamide], the IC50 [1] was 30 nM, the GI50 (SW48 cells) was 40 nM and the GI50 (DLD1-WRN-KO cells) was > 10000 nM.
In the case of `Cc1cc(C(F)(F)F)ccc1NC(=O)[C@@H]1C[C@H](C)c2c(N3CCN(C(=O)c4ncccc4O)CC3)c(=O)n3nc(C4=CCOCC4)nc3n21` [Example 15B, (7S,9S)-2-(3,6-dihydro-2H-pyran-4-yl)-6-(4-(3-hydroxypicolinoyl)piperazin-1-yl)-7-methyl-N-(2-methyl-4-(trifluoromethyl)phenyl)-5-oxo-5,7,8,9-tetrahydropyrrolo[1,2-c][1,2,4]triazolo[1,5-a]pyrimidine-9-carboxamide], the IC50 [1] is reported as 18000 nM, the GI50 (SW48 cells) is reported as 8000 nM and the GI50 (DLD1-WRN-KO cells) is reported as > 10000 nM.
`Cc1ncnc(C(=O)N2CCN(c3c4n(c5nc(C6=CCOCC6)nn5c3=O)[C@H](C(=O)Nc3ccc(C(F)(F)F)cc3Cl)C[C@@H]4C)CC2)c1O` [Example 14B, (7S,9S)—N-(2-chloro-4-(trifluoromethyl)phenyl)-2-(3,6-dihydro-2H-pyran-4-yl)-6-(4-(5-hydroxy-6-methylpyrimidine-4-carbonyl)piperazin-1-yl)-7-methyl-5-oxo-5,7,8,9-tetrahydropyrrolo[1,2-c][1,2,4]triazolo[1,5-a]pyrimidine-9-carboxamide] was tested, and the IC50 [1] was 2000 nM, the GI50 (SW48 cells) was 700 nM and the GI50 (DLD1-WRN-KO cells) was > 10000 nM.
For `Cc1cc(F)c(O)c(C(=O)N2CCN(c3c4n(c5nc(C6=CCOCC6)nn5c3=O)[C@@H](C(=O)Nc3ccc(C(F)(F)F)cc3Cl)C[C@H]4C)CC2)n1` [Example 8, (7R,9R)—N-(2-chloro-4-(trifluoromethyl)phenyl)-2-(3,6-dihydro-2H-pyran-4-yl)-6-(4-(4-fluoro-3-hydroxy-6-methylpicolinoyl)piperazin-1-yl)-7-methyl-5-oxo-5,7,8,9-tetrahydropyrrolo[1,2-c][1,2,4]triazolo[1,5-a]pyrimidine-9-carboxamide], the IC50 [1] was 20 nM, the GI50 (SW48 cells) was 20 nM and the GI50 (DLD1-WRN-KO cells) was > 10000 nM.
In the case of `Cc1ncnc(C(=O)N2CCN(c3c4n(c5nc(C6=CCOCC6)nn5c3=O)[C@H](C(=O)Nc3ccc(C(F)(F)F)cc3Cl)C[C@@H]4C)C[C@H]2C)c1O` [Example 18B, (7S,9S)—N-(2-chloro-4-(trifluoromethyl)phenyl)-2-(3,6-dihydro-2H-pyran-4-yl)-6-((R)-4-(5-hydroxy-6-methylpyrimidine-4-carbonyl)-3-methylpiperazin-1-yl)-7-methyl-5-oxo-5,7,8,9-tetrahydropyrrolo[1,2-c][1,2,4]triazolo[1,5-a]pyrimidine-9-carboxamide], the IC50 [1] is reported as 36000 nM, the GI50 (SW48 cells) is reported as > 10000 nM and the GI50 (DLD1-WRN-KO cells) is reported as > 10000 nM.
With `Cc1ncnc(C(=O)N2CCN(c3c4n(c5nc(C6=CCOCC6)nn5c3=O)[C@@H](C(=O)Nc3ccc(C(F)(F)F)nc3Cl)C[C@H]4C)CC2)c1O` [Example 4A, (7R,9R)—N-(2-chloro-6-(trifluoromethyl)pyridin-3-yl)-2-(3,6-dihydro-2H-pyran-4-yl)-6-(4-(5-hydroxy-6-methylpyrimidine-4-carbonyl)piperazin-1-yl)-7-methyl-5-oxo-5,7,8,9-tetrahydropyrrolo[1,2-c][1,2,4]triazolo[1,5-a]pyrimidine-9-carboxamide] the IC50 [1] was 90 nM, the GI50 (SW48 cells) was 100 nM and the GI50 (DLD1-WRN-KO cells) was > 10000 nM.
For `Cc1ncnc(C(=O)N2CCN(c3c4n(c5nc(C6=CCOCC6)nn5c3=O)[C@@H](C(=O)Nc3ccc(C(F)(F)F)cc3Cl)C[C@@H]4C)C[C@H]2C)c1O` [Example 18D, (7S,9R)—N-(2-chloro-4-(trifluoromethyl)phenyl)-2-(3,6-dihydro-2H-pyran-4-yl)-6-((R)-4-(5-hydroxy-6-methylpyrimidine-4-carbonyl)-3-methylpiperazin-1-yl)-7-methyl-5-oxo-5,7,8,9-tetrahydropyrrolo[1,2-c][1,2,4]triazolo[1,5-a]pyrimidine-9-carboxamide], the IC50 [1] was 100 nM, the GI50 (SW48 cells) was 500 nM and the GI50 (DLD1-WRN-KO cells) was > 10000 nM.
In the case of `Cc1nccc(C(=O)N2CCN(c3c4n(c5nc(C6=CCOCC6)nn5c3=O)[C@@H](C(=O)Nc3ccc(C(F)(F)F)cc3Cl)C[C@H]4C)CC2)c1O` [Example 10, (7R,9R)—N-(2-chloro-4-(trifluoromethyl)phenyl)-2-(3,6-dihydro-2H-pyran-4-yl)-6-(4-(3-hydroxy-2-methylisonicotinoyl)piperazin-1-yl)-7-methyl-5-oxo-5,7,8,9-tetrahydropyrrolo[1,2-c][1,2,4]triazolo[1,5-a]pyrimidine-9-carboxamide], the IC50 [1] is reported as 90 nM, the GI50 (SW48 cells) is reported as 200 nM and the GI50 (DLD1-WRN-KO cells) is reported as > 10000 nM.
In the case of `C[C@H]1C[C@@H](C(=O)Nc2ccc(C(F)(F)F)cc2Cl)n2c1c(N1CCN(C(=O)c3nccc(Cl)c3O)CC1)c(=O)n1nc(N3CCOCC3)nc21` [Example 1B, (7S,9S)-6-(4-(4-chloro-3-hydroxypicolinoyl)piperazin-1-yl)-N-(2-chloro-4-(trifluoromethyl)phenyl)-7-methyl-2-morpholino-5-oxo-5,7,8,9-tetrahydropyrrolo[1,2-c][1,2,4]triazolo[1,5-a]pyrimidine-9-carboxamide], the IC50 [1] is reported as 7000 nM, the GI50 (SW48 cells) is reported as 9000 nM and the GI50 (DLD1-WRN-KO cells) is reported as > 10000 nM.
With `C[C@@H]1C[C@H](C(=O)Nc2ccc(C(F)(F)F)cc2Cl)n2c1c(N1CCN(C(=O)c3ccnc(F)c3O)CC1)c(=O)n1nc(C3=CCOCC3)nc21` [Example 12, (7R,9R)—N-(2-chloro-4-(trifluoromethyl)phenyl)-2-(3,6-dihydro-2H-pyran-4-yl)-6-(4-(2-fluoro-3-hydroxyisonicotinoyl)piperazin-1-yl)-7-methyl-5-oxo-5,7,8,9-tetrahydropyrrolo[1,2-c][1,2,4]triazolo[1,5-a]pyrimidine-9-carboxamide] the IC50 [1] was 30 nM, the GI50 (SW48 cells) was 300 nM and the GI50 (DLD1-WRN-KO cells) was > 10000 nM.
`O=C(Nc1ccc(C(F)(F)F)cc1)[C@H]1CCc2c(N3CCN(C(=O)c4ncccc4O)CC3)c(=O)n3nc(C4=CCOCC4)nc3n21` [Example 23A, (R)-2-(3,6-dihydro-2H-pyran-4-yl)-6-(4-(3-hydroxypicolinoyl)piperazin-1-yl)-5-oxo-N-(4-(trifluoromethyl)phenyl)-5,7,8,9-tetrahydropyrrolo[1,2-c][1,2,4]triazolo[1,5-a]pyrimidine-9-carboxamide] was tested, and the IC50 [1] was 50 nM, the GI50 (SW48 cells) was 200 nM and the GI50 (DLD1-WRN-KO cells) was > 10000 nM.
In the case of `C[C@H]1C[C@@H](C(=O)Nc2ccc(C(F)(F)F)cc2Cl)n2c1c(N1CCN(C(=O)c3ncc4c(c3O)OCC4)CC1)c(=O)n1nc(C3=CCOCC3)nc21` [Example 5B, (7S,9S)—N-(2-chloro-4-(trifluoromethyl)phenyl)-2-(3,6-dihydro-2H-pyran-4-yl)-6-(4-(7-hydroxy-2,3-dihydrofuro[3,2-c]pyridine-6-carbonyl)piperazin-1-yl)-7-methyl-5-oxo-5,7,8,9-tetrahydropyrrolo[1,2-c][1,2,4]triazolo[1,5-a]pyrimidine-9-carboxamide], the IC50 [1] is reported as 6000 nM, the GI50 (SW48 cells) is reported as 5000 nM and the GI50 (DLD1-WRN-KO cells) is reported as > 10000 nM.
With `Cc1ncnc(C(=O)N2CCN(c3c4n(c5nc(N6CCOCC6)nn5c3=O)[C@@H](C(=O)Nc3ccc(C(F)(F)F)cc3Cl)C[C@@H]4C)CC2)c1O` [Example 2C, (7S,9R)—N-(2-chloro-4-(trifluoromethyl)phenyl)-6-(4-(5-hydroxy-6-methylpyrimidine-4-carbonyl)piperazin-1-yl)-7-methyl-2-morpholino-5-oxo-5,7,8,9-tetrahydropyrrolo[1,2-c][1,2,4]triazolo[1,5-a]pyrimidine-9-carboxamide] the IC50 [1] was 100 nM, the GI50 (SW48 cells) was 1000 nM and the GI50 (DLD1-WRN-KO cells) was > 10000 nM.
In the case of `C[C@H]1C[C@H](C(=O)Nc2ccc(C(F)(F)F)cc2Cl)n2c1c(N1CCN(C(=O)c3nccc(Cl)c3O)CC1)c(=O)n1nc(N3CCOCC3)nc21` [Example 1C, (7S,9R)-6-(4-(4-chloro-3-hydroxypicolinoyl)piperazin-1-yl)-N-(2-chloro-4-(trifluoromethyl)phenyl)-7-methyl-2-morpholino-5-oxo-5,7,8,9-tetrahydropyrrolo[1,2-c][1,2,4]triazolo[1,5-a]pyrimidine-9-carboxamide], the IC50 [1] is reported as 40 nM, the GI50 (SW48 cells) is reported as 500 nM and the GI50 (DLD1-WRN-KO cells) is reported as > 10000 nM.
With `C[C@@H]1C[C@H](C(=O)Nc2ccc(C(F)(F)F)cc2Cl)n2c1c(N1CCN(C(=O)c3ncccc3O)CC1)c(=O)n1nc(C3=CCOCC3)nc21` [Example 11, (7R,9R)—N-(2-chloro-4-(trifluoromethyl)phenyl)-2-(3,6-dihydro-2H-pyran-4-yl)-6-(4-(3-hydroxypicolinoyl)piperazin-1-yl)-7-methyl-5-oxo-5,7,8,9-tetrahydropyrrolo[1,2-c][1,2,4]triazolo[1,5-a]pyrimidine-9-carboxamide] the IC50 [1] was 50 nM, the GI50 (SW48 cells) was 40 nM and the GI50 (DLD1-WRN-KO cells) was > 10000 nM.
`Cc1ncnc(C(=O)N2CCN(c3c4n(c5nc(C6=CCOCC6)nn5c3=O)[C@@H](C(=O)Nc3ccc(C(F)(F)F)cc3Cl)C[C@@H]4C)[C@H]3CC[C@@H]32)c1O` [Example 21C, (7S,9R)—N-(2-chloro-4-(trifluoromethyl)phenyl)-2-(3,6-dihydro-2H-pyran-4-yl)-6-((1S,6S)-5-(5-hydroxy-6-methylpyrimidine-4-carbonyl)-2,5-diazabicyclo[4.2.0]octan-2-yl)-7-methyl-5-oxo-5,7,8,9-tetrahydropyrrolo[1,2-c][1,2,4]triazolo[1,5-a]pyrimidine-9-carboxamide] was tested, and the IC50 [1] was 40 nM, the GI50 (SW48 cells) was 10 nM and the GI50 (DLD1-WRN-KO cells) was > 10000 nM.
